Data on 3 compounds can be found in ChEMBL document CHEMBL3862021, “Eeyarestatin I derivatives with improved aqueous solubility” (Bioorg Med Chem Lett, 2016).

The nature of data set [1]: Effect on endogenous p97 protein level in HEK293T cells up to 40 uM after 16 hrs by immunoblot analysis. Format: ADME, cell-based. To be noted: human, hek-293t. For orientation: A western blot detects proteins with antibodies after separation by electrophoresis.
Data set [2] in a line: Antiproliferative activity against human MIAPaCa2 cells assessed as reduction in cell viability after 72 hrs by MTT assay. It is filed as functional, cell-based. The settings on record: MIA PaCa-2, 72 h. (In general: Formazan colour is commonly taken as a measure of viable cells.)
The nature of data set [3]: Thermodynamic solubility of the compound in DPBS after 24 hrs by LC-MS/MS analysis. It is filed as physicochemical. The settings on record: read-out: Therm_solubility.
The nature of data set [4]: Half life in mouse plasma by LC-MS/MS analysis. It is filed as ADME, cell-free.
A short description of data set [5]: Primary phase half life in human liver microsomes at 1 uM in presence of NADPH by LC-MS/MS analysis. Format: ADME. To be noted: read-out: alphat1/2. In general terms: Liver microsomes are a subcellular fraction often used to study metabolism.
The target in data set [6] is Transitional endoplasmic reticulum ATPase (Homo sapiens) (UniProt P55072). Nature of the data set: Inhibition of p97 in HEK293T cells assessed as induction of ER-stress by measuring ATF4 expression at 20 uM after 16 hrs by immunoblot analysis. Format: cell-based. To be noted: HEK-293T.
Data set [7] in a line: Primary phase half life in mouse liver microsomes at 1 uM in presence of NADPH by LC-MS/MS analysis. Format: ADME. To be noted: read-out: alphat1/2.
Data set [8] is described as follows: Terminal phase half life in mouse liver microsomes at 1 uM in presence of UDPGA by LC-MS/MS analysis. Format: ADME. To be noted: read-out: beta t1/2.
The nature of data set [9]: Terminal phase half life in human liver microsomes at 1 uM in presence of UDPGA by LC-MS/MS analysis. Format: ADME. The settings on record: read-out: beta t1/2.
A short description of data set [10]: Half life in human plasma by LC-MS/MS analysis. It is filed as ADME, cell-free.
The target in data set [11] is Transitional endoplasmic reticulum ATPase (Homo sapiens) (UniProt P55072). The data set can be described thus: Inhibition of p97 in HEK293T cells assessed as induction of ER-stress by measuring ATF3 expression up to 40 uM after 16 hrs by immunoblot analysis. It is filed as cell-based. The settings on record: HEK-293T.

Values after ≈ are worked out from the molar mass of the structure shown. Active and inactive are the calls of the source. No cut-off for these calls is given here.

Transitional endoplasmic reticulum ATPase (Homo sapiens), sequence (P55072 2-806 limits assumed): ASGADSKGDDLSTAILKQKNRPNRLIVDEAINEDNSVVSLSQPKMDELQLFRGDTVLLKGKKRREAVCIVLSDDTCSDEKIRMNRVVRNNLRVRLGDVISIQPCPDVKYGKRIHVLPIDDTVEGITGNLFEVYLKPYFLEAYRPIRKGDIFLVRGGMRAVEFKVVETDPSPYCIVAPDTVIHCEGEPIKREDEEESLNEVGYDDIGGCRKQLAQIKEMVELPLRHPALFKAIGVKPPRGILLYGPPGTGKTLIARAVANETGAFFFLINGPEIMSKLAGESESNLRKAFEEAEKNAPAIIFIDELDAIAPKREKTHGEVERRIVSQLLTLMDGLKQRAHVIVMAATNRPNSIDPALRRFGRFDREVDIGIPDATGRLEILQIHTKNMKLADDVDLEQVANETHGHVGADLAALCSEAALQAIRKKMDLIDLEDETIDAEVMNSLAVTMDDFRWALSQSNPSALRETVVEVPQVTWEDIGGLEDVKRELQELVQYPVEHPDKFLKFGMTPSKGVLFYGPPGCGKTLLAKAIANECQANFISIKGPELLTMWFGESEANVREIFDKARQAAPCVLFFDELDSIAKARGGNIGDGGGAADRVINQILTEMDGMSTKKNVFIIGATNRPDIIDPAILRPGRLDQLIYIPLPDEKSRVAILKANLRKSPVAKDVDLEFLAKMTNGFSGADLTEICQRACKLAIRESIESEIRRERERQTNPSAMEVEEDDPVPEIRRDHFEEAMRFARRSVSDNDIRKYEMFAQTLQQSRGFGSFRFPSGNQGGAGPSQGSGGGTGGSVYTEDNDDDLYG

As for `COCCOc1ccc(NC(=O)N(O)C2N(c3ccc(OCCOC)cc3)C(=O)N(CC(=O)N/N=C/C=C/c3ccc([N+](=O)[O-])o3)C2(C)C)cc1` (stereo not given), the Activity entry in data set [1] was “Non-Toxic”. For the same compound, the EC50 in [2] was found to be 38.4 µM. Further, in [3], the solubility thermodynamic at 24 h was found to be 64.2 µM (≈ 45.6 µg/mL).

`COCCOc1ccc(N2C(=O)N(CC(=O)N/N=C/C=C/c3ccc([N+](=O)[O-])o3)C(C)(C)C2N(O)C(=O)Nc2ccc(Cl)cc2)cc1` (stereo not given): the half-life in data set [4] was 15.7 h; in data set [10], 17.2 h. In addition, the half-life at 1 µM in [5] came to 0.53 h; in data set [7] it was 2.32 h; in data set [8] it was 14.4 h; in data set [9], 57.8 h. Further, in [1], the Activity result was “Non-Toxic”. In addition, the inhibition entry in [6] and in data set [11] was “Active” in each case. Further, the EC50 in data set [2] came to 6.3 µM. In addition, the solubility thermodynamic at 24 h in data set [3] turned out to be 2.8 µM (≈ 1.88 µg/mL).

As for `COCCOc1ccc(NC(=O)N(O)C2N(c3ccc(Cl)cc3)C(=O)N(CC(=O)N/N=C/C=C/c3ccc([N+](=O)[O-])o3)C2(C)C)cc1` (stereo not given), the half-life in data set [4] is 12.5 h; in [10] it was 9.5 h. Moreover, the half-life at 1 µM in data set [5] was determined as 2.07 h; in data set [7], 1.75 h; in data set [8], 16.5 h; in data set [9], 23.1 h. The Activity result in data set [1] is listed as “Non-Toxic”. For the same compound, the inhibition entry in data set [6] and in [11] was “Active” in each case. In data set [2], the EC50 is 5.4 µM. In addition, the solubility thermodynamic at 24 h in data set [3] amounted to 2.3 µM (≈ 1.54 µg/mL).

The EC50 is the concentration needed to bring the measured effect to its halfway point.
